Measurements reported in publication PMC12656268, “Venom Peptides Across Asian and American Tarantulas Utilize Dual Pharmacology to Target Activation and Fast Inactivation of Voltage-Gated Sodium Channels” (Toxins, 2025).
Positions of bridges follow the written chain, without caps; N, C: chain ends. Residues, ends and D or L forms follow the SMILES beside them.

Tests used:
hNaV1.5 = hNaV1.5 (Homo sapiens, UniProt Q14524); test: hNaV1.5 peak current inhibition, automated whole-cell patch clamp (QPatch 16X); assay type: cell-based; settings: for IC50: HEK293 + β1, holding −80 mV, 20 ms step to 0 mV from −120 mV 200 ms prepulse, 5 min incubation, mean ± SEM, 3 to 9 independent experiments, read-out: IC50, inhibition of peak current, NaV1.5
Method: (§1) Unless otherwise specified, all cell culture reagents were obtained from Life Technologies (Carlsbad, CA, USA). The human neuroblastoma cell line SH-SY5Y (ATCC CRL-2266; Manassas, VA, USA) was maintained in RPMI medium supplemented with 15% fetal bovine serum (FBS) and 2 mM L-glutamine. HEK293 cells stably expressing human NaV channel isoforms together with the β1 auxiliary subunit (SB Drug Discovery, Glasgow, UK) were propagated in Minimal Essential Medium (MEM; Sigma-Aldrich, St. Louis, MO, USA) containing 10% FBS, 100 U/mL penicillin, 100 µg/mL streptomycin, 2 mM L-glutamine, and selective antibiotics (blasticidin, geneticin, and zeocin) at concentrations recommended by the supplier. […]
(§2) Sodium channel currents were recorded from HEK293 cells expressing human NaV isoforms together with the β1 auxiliary subunit (SB Drug Discovery, Glasgow, UK) using the QPatch 16X automated whole-cell patch-clamp platform (Sophion Bioscience A/S, Ballerup, Denmark). […] For determining the potency of Oa1a peptides to inhibit peak current, the maximum peak current within the 20 ms at 0 mV was measured. For determining the potency of Oa1a-NH2 to slow fast inactivation, peak current values were measured at 20 ms of the 0 mV depolarization step. […]
(§3) For calcium influx experiments, bioactivity comparisons between venom fractions and controls were based on the difference between the maximal and minimal fluorescence intensity values obtained from single-replicate assays. […] Reversibility and dissociation kinetics were analyzed by fitting data with a single-phase exponential decay model, while voltage-dependence of steady-state activation and inactivation parameters were derived from Boltzmann sigmoid fits of normalized conductance (G/Gmax) or current (I/Imax) values to determine the half-activation or half-inactivation voltages (V50). Data are expressed as mean ± SEM, where n represents the number of individual cells analyzed.

hNaV1.7 = hNaV1.7 (Homo sapiens, UniProt Q15858); test: hNaV1.7 peak current inhibition, automated whole-cell patch clamp (QPatch 16X); assay type: cell-based; settings: for IC50: HEK293 + β1, holding −80 mV, 20 ms step to 0 mV from −120 mV 200 ms prepulse, 5 min incubation, mean ± SEM, 3 to 9 independent experiments, read-out: IC50, inhibition of peak current, NaV1.7
Method: as §1, §2, §3

NaV1.3 = NaV1.3 (Homo sapiens, UniProt Q9NY46); test: Slowing of fast inactivation of NaV1.3; assay type: cell-based; settings: for Slowing of fast inactivation of NaV1.3 (in words): closed-state voltage protocol, current traces, concentrations up to those of IC50 curves
Method: Sodium channel currents were recorded from HEK293 cells expressing human NaV isoforms together with the β1 auxiliary subunit (SB Drug Discovery, Glasgow, UK) using the QPatch 16X automated whole-cell patch-clamp platform (Sophion Bioscience A/S, Ballerup, Denmark). The external recording solution contained (in mM) the following: 140 NaCl, 3 KCl, 1 CaCl2, 1 MgCl2, 0.1 CdCl2, 20 tetraethylammonium chloride (TEA-Cl), and 5 HEPES; pH was adjusted to 7.3 and osmolarity to 320 mOsm. The internal (pipette) solution consisted of (in mM) the following: 140 CsF, 10 NaCl, 10 HEPES, and 1/5 EGTA/CsOH, also adjusted to pH 7.3 and 320 mOsm. Cells were voltage-clamped at a holding potential of −80 mV, and inward Na^+ currents were evoked by 20 ms depolarizing pulses to 0 mV following a 200 ms hyperpolarizing prepulse to −120 mV. To obtain concentration–response curves, cells at holding potential were incubated for 5 min with increasing concentrations of Oa1a peptides. For determining the potency of Oa1a peptides to inhibit peak current, the maximum peak current within the 20 ms at 0 mV was measured. For determining the potency of Oa1a-NH2 to slow fast inactivation, peak current values were measured at 20 ms of the 0 mV depolarization step. Ion currents (INa) were plotted as I/Imax, where I = current value and Imax = highest current value within the experiment.
(§4) For calcium influx experiments, bioactivity comparisons between venom fractions and controls were based on the difference between the maximal and minimal fluorescence intensity values obtained from single-replicate assays. Electrophysiological data analysis was conducted using GraphPad Prism (version 8; GraphPad Software, San Diego, CA, USA). Nonlinear regression was applied to fit the concentration–response relationships using a variable Hill slope: log(inhibitor) versus normalized response for determining IC50 values, and log(agonist) versus normalized response for EC50 calculations. Reversibility and dissociation kinetics were analyzed by fitting data with a single-phase exponential decay model, while voltage-dependence of steady-state activation and inactivation parameters were derived from Boltzmann sigmoid fits of normalized conductance (G/Gmax) or current (I/Imax) values to determine the half-activation or half-inactivation voltages (V50). Data are expressed as mean ± SEM, where n represents the number of individual cells analyzed.

hNaV1.1 = hNaV1.1 (Homo sapiens, UniProt P35498); test: hNaV1.1 peak current inhibition, automated whole-cell patch clamp (QPatch 16X); assay type: cell-based; settings: for IC50: HEK293 + β1, holding −80 mV, 20 ms step to 0 mV from −120 mV 200 ms prepulse, 5 min incubation, mean ± SEM, 3 to 9 independent experiments, read-out: IC50, inhibition of peak current, NaV1.1
Method: as §1, §2, §3

NaV1.1 = NaV1.1 (Homo sapiens, UniProt P35498); test: Off-rate / reversibility on NaV1.1, patch clamp with saline washes; assay type: cell-based; settings: for 95% CI of off-rate (dissociation time), NaV1.1: peptide at 10× IC50 for 10 min, then saline washes, 3 to 5 independent repeats; for Reversibility on NaV1.1 by washing: peptide at 10× IC50 for NaV1.1, then washing
Method: For off-rate measurements, cells at a holding potential −80 mV were incubated with peptide for 10 min at a concentration equivalent to 10 times their IC50 for the NaV subtype being analyzed, followed by saline washes. Na^+ currents were assessed every 10 s utilizing a holding potential −80 mV and currents elicited by 20 ms voltage step to 0 mV from a −120 mV conditioning pulse applied for 200 ms. Ion currents (INa) plotted as I/Imax, where I = current value and Imax = highest current value within the experiment.
as §4

hNaV1.2 = hNaV1.2 (Homo sapiens, UniProt Q99250); test: hNaV1.2 peak current inhibition, automated whole-cell patch clamp (QPatch 16X); assay type: cell-based; settings: for IC50: HEK293 + β1, holding −80 mV, 20 ms step to 0 mV from −120 mV 200 ms prepulse, 5 min incubation, mean ± SEM, 3 to 9 independent experiments, read-out: IC50, inhibition of peak current, NaV1.2
Method: as §1, §2, §3

hNaV1.1 to hNaV1.7 = test: NaV subtype preference across NaV1.1 to NaV1.7, patch clamp; assay type: cell-based, human; settings: NaV1.1 to NaV1.7, closed-state voltage protocol
Method: Unless otherwise specified, all cell culture reagents were obtained from Life Technologies (Carlsbad, CA, USA). The human neuroblastoma cell line SH-SY5Y (ATCC CRL-2266; Manassas, VA, USA) was maintained in RPMI medium supplemented with 15% fetal bovine serum (FBS) and 2 mM L-glutamine. HEK293 cells stably expressing human NaV channel isoforms together with the β1 auxiliary subunit (SB Drug Discovery, Glasgow, UK) were propagated in Minimal Essential Medium (MEM; Sigma-Aldrich, St. Louis, MO, USA) containing 10% FBS, 100 U/mL penicillin, 100 µg/mL streptomycin, 2 mM L-glutamine, and selective antibiotics (blasticidin, geneticin, and zeocin) at concentrations recommended by the supplier. HEK293T cells expressing the human CaV3.2 channel (a generous gift from Prof. Emmanuel Bourinet, Institut de Génomique Fonctionnelle, Université de Montpellier, France, and Prof. Edward Perez-Reyes, University of Virginia School of Medicine, USA) were grown in Dulbecco’s MEM supplemented with 10% FBS, 100 U/mL penicillin, 100 µg/mL streptomycin, and 750 µg/mL geneticin.
Sodium channel currents were recorded from HEK293 cells expressing human NaV isoforms together with the β1 auxiliary subunit (SB Drug Discovery, Glasgow, UK) using the QPatch 16X automated whole-cell patch-clamp platform (Sophion Bioscience A/S, Ballerup, Denmark). The external recording solution contained (in mM) the following: 140 NaCl, 3 KCl, 1 CaCl2, 1 MgCl2, 0.1 CdCl2, 20 tetraethylammonium chloride (TEA-Cl), and 5 HEPES; pH was adjusted to 7.3 and osmolarity to 320 mOsm. The internal (pipette) solution consisted of (in mM) the following: 140 CsF, 10 NaCl, 10 HEPES, and 1/5 EGTA/CsOH, also adjusted to pH 7.3 and 320 mOsm. […] For determining the potency of Oa1a peptides to inhibit peak current, the maximum peak current within the 20 ms at 0 mV was measured. For determining the potency of Oa1a-NH2 to slow fast inactivation, peak current values were measured at 20 ms of the 0 mV depolarization step. […]
as §3

Sequence of hNaV1.5 (Q14524 whole entry, canonical isoform): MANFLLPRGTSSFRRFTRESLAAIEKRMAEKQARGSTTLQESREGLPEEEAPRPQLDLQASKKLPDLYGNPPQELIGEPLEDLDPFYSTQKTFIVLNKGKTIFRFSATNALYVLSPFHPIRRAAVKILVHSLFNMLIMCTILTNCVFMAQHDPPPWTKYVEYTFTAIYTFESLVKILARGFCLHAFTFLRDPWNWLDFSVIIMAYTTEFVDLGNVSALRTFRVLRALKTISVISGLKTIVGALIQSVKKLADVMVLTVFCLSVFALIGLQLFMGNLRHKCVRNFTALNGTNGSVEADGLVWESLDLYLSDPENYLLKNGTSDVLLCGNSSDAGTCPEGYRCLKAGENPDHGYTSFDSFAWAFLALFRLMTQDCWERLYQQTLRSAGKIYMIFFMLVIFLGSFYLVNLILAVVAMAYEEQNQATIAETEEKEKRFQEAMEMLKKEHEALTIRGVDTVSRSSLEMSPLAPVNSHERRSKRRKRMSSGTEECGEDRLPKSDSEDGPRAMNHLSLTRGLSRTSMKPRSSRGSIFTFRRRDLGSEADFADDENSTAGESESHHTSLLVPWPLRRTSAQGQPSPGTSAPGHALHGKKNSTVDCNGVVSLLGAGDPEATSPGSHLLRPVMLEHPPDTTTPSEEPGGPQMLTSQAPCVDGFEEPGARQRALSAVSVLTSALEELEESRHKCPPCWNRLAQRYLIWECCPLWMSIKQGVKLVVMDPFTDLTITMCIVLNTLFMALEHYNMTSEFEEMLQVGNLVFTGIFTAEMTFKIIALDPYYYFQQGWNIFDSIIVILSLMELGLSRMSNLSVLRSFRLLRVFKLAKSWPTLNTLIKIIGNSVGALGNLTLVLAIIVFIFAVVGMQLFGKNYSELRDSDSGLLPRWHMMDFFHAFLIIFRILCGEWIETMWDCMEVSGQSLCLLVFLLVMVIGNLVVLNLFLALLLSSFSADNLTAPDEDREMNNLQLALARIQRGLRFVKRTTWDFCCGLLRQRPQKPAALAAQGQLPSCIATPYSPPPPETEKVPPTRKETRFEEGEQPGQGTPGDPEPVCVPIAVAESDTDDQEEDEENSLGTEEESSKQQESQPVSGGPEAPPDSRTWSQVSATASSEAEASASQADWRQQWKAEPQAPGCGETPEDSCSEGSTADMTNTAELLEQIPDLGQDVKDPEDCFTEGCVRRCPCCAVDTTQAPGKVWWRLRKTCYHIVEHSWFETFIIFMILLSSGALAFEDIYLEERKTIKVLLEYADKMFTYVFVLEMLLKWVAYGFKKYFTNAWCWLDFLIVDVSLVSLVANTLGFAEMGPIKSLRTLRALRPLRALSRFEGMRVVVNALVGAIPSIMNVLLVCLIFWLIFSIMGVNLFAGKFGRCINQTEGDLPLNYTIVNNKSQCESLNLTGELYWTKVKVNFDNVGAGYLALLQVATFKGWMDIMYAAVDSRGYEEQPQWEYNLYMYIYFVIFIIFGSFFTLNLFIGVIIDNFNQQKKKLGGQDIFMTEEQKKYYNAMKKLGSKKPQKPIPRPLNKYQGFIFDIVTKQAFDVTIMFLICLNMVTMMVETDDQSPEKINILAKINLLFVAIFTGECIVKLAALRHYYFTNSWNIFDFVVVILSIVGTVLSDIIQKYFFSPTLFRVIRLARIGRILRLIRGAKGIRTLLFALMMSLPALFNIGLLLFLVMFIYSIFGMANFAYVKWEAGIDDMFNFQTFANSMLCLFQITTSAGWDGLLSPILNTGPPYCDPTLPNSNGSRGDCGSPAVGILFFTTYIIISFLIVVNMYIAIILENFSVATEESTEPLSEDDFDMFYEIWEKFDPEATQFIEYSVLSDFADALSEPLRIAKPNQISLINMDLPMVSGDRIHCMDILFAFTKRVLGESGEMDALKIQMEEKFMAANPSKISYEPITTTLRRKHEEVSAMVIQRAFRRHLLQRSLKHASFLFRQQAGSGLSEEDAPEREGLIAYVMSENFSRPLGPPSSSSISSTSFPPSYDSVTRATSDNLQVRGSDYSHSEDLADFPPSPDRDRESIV
Sequence of NaV1.3 (Q9NY46 whole entry, canonical isoform): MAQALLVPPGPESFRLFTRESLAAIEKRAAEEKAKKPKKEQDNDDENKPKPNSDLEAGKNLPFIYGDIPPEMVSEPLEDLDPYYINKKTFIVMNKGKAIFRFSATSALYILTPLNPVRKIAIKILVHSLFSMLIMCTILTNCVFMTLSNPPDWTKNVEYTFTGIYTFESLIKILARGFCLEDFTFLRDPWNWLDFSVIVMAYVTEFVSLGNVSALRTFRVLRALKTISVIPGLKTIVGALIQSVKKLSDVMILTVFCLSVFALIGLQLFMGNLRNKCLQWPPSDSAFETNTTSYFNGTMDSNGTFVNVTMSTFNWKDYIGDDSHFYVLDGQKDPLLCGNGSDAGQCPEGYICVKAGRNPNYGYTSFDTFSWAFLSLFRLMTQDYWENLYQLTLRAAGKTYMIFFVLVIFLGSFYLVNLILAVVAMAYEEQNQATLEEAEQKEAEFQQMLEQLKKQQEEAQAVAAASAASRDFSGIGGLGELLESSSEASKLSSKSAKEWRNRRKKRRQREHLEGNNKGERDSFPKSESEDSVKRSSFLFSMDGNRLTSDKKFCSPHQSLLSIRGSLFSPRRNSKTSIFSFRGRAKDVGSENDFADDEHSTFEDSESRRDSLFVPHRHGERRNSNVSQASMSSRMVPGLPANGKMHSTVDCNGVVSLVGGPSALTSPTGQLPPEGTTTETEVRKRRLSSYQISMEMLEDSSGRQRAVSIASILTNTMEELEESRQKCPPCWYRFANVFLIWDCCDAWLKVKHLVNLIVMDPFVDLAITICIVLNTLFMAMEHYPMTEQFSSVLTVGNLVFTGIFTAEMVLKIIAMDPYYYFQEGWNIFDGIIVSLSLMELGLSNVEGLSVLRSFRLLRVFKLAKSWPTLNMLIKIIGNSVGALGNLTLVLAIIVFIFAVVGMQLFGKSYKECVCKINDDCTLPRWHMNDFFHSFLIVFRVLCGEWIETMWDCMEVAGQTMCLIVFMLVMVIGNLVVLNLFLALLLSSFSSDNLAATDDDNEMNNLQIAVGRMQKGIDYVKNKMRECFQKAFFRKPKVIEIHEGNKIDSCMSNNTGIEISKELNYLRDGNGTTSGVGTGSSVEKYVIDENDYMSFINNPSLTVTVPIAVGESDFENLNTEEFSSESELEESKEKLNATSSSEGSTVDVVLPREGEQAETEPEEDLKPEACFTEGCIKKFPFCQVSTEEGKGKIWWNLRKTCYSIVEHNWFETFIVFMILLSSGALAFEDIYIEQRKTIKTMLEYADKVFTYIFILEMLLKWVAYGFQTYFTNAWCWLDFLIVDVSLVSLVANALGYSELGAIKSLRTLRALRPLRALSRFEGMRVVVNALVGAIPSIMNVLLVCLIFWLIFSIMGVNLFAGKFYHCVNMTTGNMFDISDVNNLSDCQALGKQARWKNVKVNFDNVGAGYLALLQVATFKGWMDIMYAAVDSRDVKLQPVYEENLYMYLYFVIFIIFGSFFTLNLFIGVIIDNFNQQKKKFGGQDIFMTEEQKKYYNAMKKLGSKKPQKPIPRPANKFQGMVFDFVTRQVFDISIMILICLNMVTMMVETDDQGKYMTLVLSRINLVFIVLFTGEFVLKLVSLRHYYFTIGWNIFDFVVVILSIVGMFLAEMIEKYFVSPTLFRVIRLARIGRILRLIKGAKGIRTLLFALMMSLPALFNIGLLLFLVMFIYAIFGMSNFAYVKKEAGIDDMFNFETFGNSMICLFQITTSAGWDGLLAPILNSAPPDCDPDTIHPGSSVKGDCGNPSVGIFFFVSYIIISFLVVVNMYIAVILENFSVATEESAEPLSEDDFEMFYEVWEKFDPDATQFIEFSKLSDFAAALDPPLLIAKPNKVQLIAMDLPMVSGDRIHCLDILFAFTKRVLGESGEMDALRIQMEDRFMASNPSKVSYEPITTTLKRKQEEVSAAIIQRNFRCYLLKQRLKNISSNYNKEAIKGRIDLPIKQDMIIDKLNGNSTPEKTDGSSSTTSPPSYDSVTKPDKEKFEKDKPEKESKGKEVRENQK
Sequence of NaV1.3 (Q07699 19-218, further chain): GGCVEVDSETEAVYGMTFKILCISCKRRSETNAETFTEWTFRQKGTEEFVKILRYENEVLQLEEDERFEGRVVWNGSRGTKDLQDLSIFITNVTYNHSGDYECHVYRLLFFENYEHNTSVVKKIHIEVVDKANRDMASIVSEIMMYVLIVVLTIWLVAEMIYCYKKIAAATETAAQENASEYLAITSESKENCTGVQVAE

| SMILES | IC50 (hNaV1.5) [µM] | IC50 (hNaV1.7) [µM] | Slowing of fast inactivation of NaV1.3 (in words) (NaV1.3) | EC50 (NaV1.3; current measured at 20 ms of the 0 mV depolarization step, 5 min incubation, mean ± SEM, 3 to 5 repeats) [µM] | IC50 (hNaV1.1) [µM] | 95% CI of off-rate (dissociation time), NaV1.1 (NaV1.1) | Reversibility on NaV1.1 by washing (NaV1.1) | Increase in off-rate through C-terminal amidation, NaV1.1 (NaV1.1; sOa1a-NH2 vs sOa1a-OH) [min] | IC50 (hNaV1.2) [µM] | NaV subtype preference of inhibition (in words) (hNaV1.1 to hNaV1.7) | Ratio OH/NH2 (IC50 sOa1a-OH / IC50 sOa1a-NH2), NaV1.5 (hNaV1.5; ratio of IC50 values) | Ratio OH/NH2 (IC50 sOa1a-OH / IC50 sOa1a-NH2), NaV1.7 (hNaV1.7; ratio of IC50 values) | Ratio OH/NH2 (IC50 sOa1a-OH / IC50 sOa1a-NH2), NaV1.1 (hNaV1.1; ratio of IC50 values) | Activity on NaV1.2 (in words) (hNaV1.2; tested at up to 3 μM) |
| --- | --- | --- | --- | --- | --- | --- | --- | --- | --- | --- | --- | --- | --- | --- |
| CC(C)C[C@@H]1NC(=O)[C@H](Cc2ccccc2)NC(=O)[C@H](Cc2ccc(O)cc2)NC(=O)[C@H](CCCNC(=N)N)NC(=O)[C@@H](NC(=O)[C@@H](N)CCC(=O)O)CSSC[C@@H]2NC(=O)[C@@H]3CSSC[C@@H](C(=O)N[C@H](C(=O)N[C@@H](Cc4c[nH]c5ccccc45)C(=O)N[C@@H](CC(=O)O)C(=O)N[C@@H](Cc4c[nH]c5ccccc45)C(=O)N[C@H](C(=O)N[C@@H](Cc4ccccc4)C(N)=O)[C@@H](C)O)C(C)C)NC(=O)[C@H](Cc4c[nH]c5ccccc45)NC(=O)[C@H](CCC(N)=O)NC(=O)[C@H](Cc4c[nH]cn4)NC(=O)[C@H](CCCCN)NC(=O)[C@H](CC(N)=O)NC(=O)[C@H](Cc4c[nH]cn4)NC(=O)[C@H](CSSC[C@H](NC(=O)CNC(=O)CNC1=O)C(=O)N[C@@H](CO)C(=O)N[C@@H](CCC(N)=O)C(=O)NCC(=O)N[C@@H](CCC(=O)O)C(=O)N[C@@H](CCCCN)C(=O)N3)NC(=O)[C@H](C(C)C)NC(=O)[C@H](CC(C)C)NC(=O)[C@H](Cc1c[nH]cn1)NC(=O)[C@H](CCC(=O)O)NC2=O [sOa1a-NH2] (H-ECRYFLGGCSQGEKCCEHLVCHNKHQWCVWDWTF-NH2; disulfide 2-16, 9-21, 15-28; N-terminus assumed) | 0.192 ± 0.004 | 0.025 ± 0.0004 | strongly slowing the fast inactivation of NaV1.3 | 0.0229 ± 0.0018 | 0.017 ± 0.001 | Off-rate 4.6 min (95% CI = 4.27 to 4.97 min) | completely reversed by washing | 1 | 0.154 ± 0.007 | strong preference for inhibiting NaV1.1 |  |  |  |  |
| CC(C)C[C@@H]1NC(=O)[C@H](Cc2ccccc2)NC(=O)[C@H](Cc2ccc(O)cc2)NC(=O)[C@H](CCCNC(=N)N)NC(=O)[C@@H](NC(=O)[C@@H](N)CCC(=O)O)CSSC[C@@H]2NC(=O)[C@@H]3CSSC[C@@H](C(=O)N[C@H](C(=O)N[C@@H](Cc4c[nH]c5ccccc45)C(=O)N[C@@H](CC(=O)O)C(=O)N[C@@H](Cc4c[nH]c5ccccc45)C(=O)N[C@H](C(=O)N[C@@H](Cc4ccccc4)C(=O)O)[C@@H](C)O)C(C)C)NC(=O)[C@H](Cc4c[nH]c5ccccc45)NC(=O)[C@H](CCC(N)=O)NC(=O)[C@H](Cc4c[nH]cn4)NC(=O)[C@H](CCCCN)NC(=O)[C@H](CC(N)=O)NC(=O)[C@H](Cc4c[nH]cn4)NC(=O)[C@H](CSSC[C@H](NC(=O)CNC(=O)CNC1=O)C(=O)N[C@@H](CO)C(=O)N[C@@H](CCC(N)=O)C(=O)NCC(=O)N[C@@H](CCC(=O)O)C(=O)N[C@@H](CCCCN)C(=O)N3)NC(=O)[C@H](C(C)C)NC(=O)[C@H](CC(C)C)NC(=O)[C@H](Cc1c[nH]cn1)NC(=O)[C@H](CCC(=O)O)NC2=O [sOa1a-OH] (H-ECRYFLGGCSQGEKCCEHLVCHNKHQWCVWDWTF-OH; disulfide 2-16, 9-21, 15-28; N-terminus assumed) | 1.27 ± 0.022 | 0.41 ± 0.023 | this dual modulatory activity was not observed |  | 0.274 ± 0.018 | Off-rate 3.56 min (95% CI = 3.35 to 3.80 min) | completely reversed by washing |  | > 3 | strong preference for inhibiting NaV1.1 | 6.6 | 16 | 16 | no activity |
